Laboratory results reported in patent US8067408B2, “Dual pharmacophores—PDE4-muscarinic antagonistics” (priority 2008, dated 2011).
Structures can show the parent of a compound that is named as a salt.

Compound	melting point [°C]
O=C(O)c1cccc(C(=O)NCc2ccc(F)c(-c3cccc(CO)c3)c2)c1	169 to 171
CCc1nc2c(cnn2CC)c(NC2CCOCC2)c1CNC(=O)c1cccc(C(=O)NCc2ccc(F)c(-c3cccc(CN4C[C@@H]5C[C@H]4CN5C(=O)OC(C)(C)C)c3)c2)c1	119 to 123
CCc1nc2c(cnn2CC)c(NC2CCOCC2)c1CNC(=O)c1cccc(C(=O)O)c1	207 to 209
CCc1nc2c(cnn2CC)c(NC2CCOCC2)c1CNC(=O)c1cc(C)cc(C(=O)NCc2cccc(-c3cccc(C=O)c3)c2)c1	109 to 112
CCc1nc2c(cnn2CC)c(NC2CCOCC2)c1CNC(=O)c1cc(C)cc(C(=O)NCc2ccc(F)c(-c3cccc(C=O)c3)c2)c1	107 to 110
CCc1nc2c(cnn2CC)c(NC2CCOCC2)c1CNC(=O)c1cc(C)cc(C(=O)NCc2ccc(Cl)c(Br)c2)c1	212 to 214
CCc1nc2c(cnn2CC)c(NC2CCOCC2)c1CNC(=O)c1cc(C)cc(C(=O)NCc2ccc(Cl)c(-c3cccc(C=O)c3)c2)c1	153 to 156
CCc1nc2c(cnn2CC)c(NC2CCOCC2)c1CNC(=O)c1cc(C)cc(C(=O)NCc2ccc(OC)c(-c3cccc(C=O)c3)c2)c1	117 to 119
CCc1nc2c(cnn2CC)c(NC2CCOCC2)c1CNC(=O)c1cc(C)cc(C(=O)NCc2ccc(C)c(Br)c2)c1	117 to 119
CCc1nc2c(cnn2CC)c(NC2CCOCC2)c1CNC(=O)c1cc(C)cc(C(=O)NCc2ccc(C)c(-c3cccc(C=O)c3)c2)c1	117 to 120
CCc1nc2c(cnn2CC)c(NC2CCOCC2)c1CNC(=O)c1cccc(C(=O)NCc2ccc(F)c(-c3cccc(CN4CCN[C@@H](C)C4)c3)c2)c1 (as salt: TFA) [Example 205, N-{[1,6-Diethyl-4-(tetrahydro-2H-pyran-4-ylamino)-1H-pyrazolo[3,4-b]pyridin-5-yl]methyl}-N′-[(6-fluoro-3′-{[(3S)-3-methyl-1-piperazinyl]methyl}-3-biphenylyl)methyl]-1,3-benzenedicarboxamide]	100 to 113
CCc1nc2c(cnn2CC)c(NC2CCOCC2)c1CNC(=O)c1cccc(C(=O)NCc2ccc(C)c(-c3cccc(CN4CCNCC4)c3)c2)c1 [Example 192, N-{[1,6-Diethyl-4-(tetrahydro-2H-pyran-4-ylamino)-1H-pyrazolo[3,4-b]pyridin-5-yl]methyl}-N′-{[6-methyl-3′-(1-piperazinylmethyl)-3-biphenylyl]methyl}-1,3-benzenedicarboxamide]	135 to 138
CCc1nc2c(cnn2CC)c(NC2CCOCC2)c1CNC(=O)c1cccc(C(=O)NCc2ccc(C)c(-c3cccc(CN4CCN(C)CC4)c3)c2)c1 [Example 193, N-{[1,6-Diethyl-4-(tetrahydro-2H-pyran-4-ylamino)-1H-pyrazolo[3,4-b]pyridin-5-yl]methyl}-N′-({6-methyl-3′-[(4-methyl-1-piperazinyl)methyl]-3-biphenylyl}methyl)-1,3-benzenedicarboxamide]	121 to 124
CCc1nc2c(cnn2CC)c(NC2CCOCC2)c1CNC(=O)c1cccc(C(=O)NCc2ccc(OC)c(-c3cccc(CN4C[C@@H]5C[C@H]4CN5)c3)c2)c1 [Example 194, N-{[3′-[(1S,4S)-2,5-Diazabicyclo [2.2.1]hept-2-ylmethyl]-6-(methyloxy)-3-biphenylyl]methyl}-N′-{[1,6-diethyl-4-(tetrahydro-2H-pyran-4-ylamino)-1H-pyrazolo[3,4-b]pyridin-5-yl]methyl}-1,3-benzenedicarboxamide]	129 to 131
CCc1nc2c(cnn2CC)c(NC2CCOCC2)c1CNC(=O)c1cccc(C(=O)NCc2ccc(OC)c(-c3cccc(CN4CCCNCC4)c3)c2)c1 [Example 195, N-{[1,6-Diethyl-4-(tetrahydro-2H-pyran-4-ylamino)-1H-pyrazolo[3,4-b]pyridin-5-yl]methyl}-N′-{[3′-(hexahydro-1H-1,4-diazepin-1-ylmethyl)-6-(methyloxy)-3-biphenylyl]methyl}-1,3-benzenedicarboxamide]	143 to 147
